In US12162858B2, “Quinoline derivatives as inhibitors of AXL/MER RTK and CSF1R” (QURIENT CO., LTD., priority 2018, dated 2024):

Legend:
EMT-6 tumor cells = test: EMT-6 syngeneic tumor model; assay type: in vivo, BALB/c mice; details: oral, daily; vs compound 27 of WO 2016/166250 or vehicle; FIG. 1
Source text: (§1) FIGS. 1 and 2 show comparison data of compound 4 of the present invention (marked with two asterisks** and diamond) vs. compound 27 of WO2016/166250 (marked with single asterisk* and open square) in mouse models EMT-6 and MV4-11; EMT-6 measures triple inhibition of Axl, Mer and CSF1R. MV4-11 measures inhibition of Axl.
In case of CSF1R, it mediates tumorigenesis in tumor-immune microenvironments and is expressed on myeloid cell tumor-associated macrophages (TAMs); elevated serum CSF1, increased numbers of TAMs in tumors, and high expression of tissue CSF1 and/or CSF1R are associated with poor prognosis in patients with various cancers. […] Therefore, EMT-6 is a suitable model for immune-oncology drug efficacy effects through changes in target immune cells.
BALB/c mice (6-8 week female, Beijing Vital River Laboratory Animal Technology Co., Ltd.) were inoculated subcutaneously at the upper right flank with EMT-6 tumor cells (1×10^6) in 0.1 mL of PBS for tumor development. […] Tumor volumes were measured every 3 days with a digital caliper, and were calculated using the formula: V=0.5a×b^2 where a and b are the long and short diameters of the tumor in mm, respectively. Body weight was measured every 3 days. […] Death and observed clinical signs were recorded on the basis of the numbers of animals within each subset. […]

MV4-11 tumor cells = test: MV4-11 xenograft tumor model; assay type: in vivo, BALB/c nude mice; details: oral, daily; vs compound 27 of WO 2016/166250 or vehicle; FIG. 2
Source text: as §1
High expression of Axl or Gas6 in acute myeloid leukemia (AML) patients is prognostic for poor survival outcome. AML cells induce expression and secretion of the Axl ligand Gas6 by bone marrow-derived stromal cells (BMDSCs). Gas6 in turn mediates proliferation, survival, and chemoresistance of Axl-expressing AML cells. This Gas6/Axl paracrine axis between AML cells and BMDSCs establishes a chemoprotective tumor cell niche that can be abrogated by Axl-targeting approaches. […]
BALB/c nude mice (6-8 week female, Shanghai SIPPR/BK Laboratory Animal Co., LTD.) were inoculated subcutaneously at the upper right flank with MV4-11 tumor cells (1×10^7) in 0.1 mL of PBS+Matrigel (1:1) for tumor development. […] Tumor volumes were measured every 3 days with a digital caliper, and were calculated using the formula: V=0.5a×b^2 where a and b are the long and short diameters of the tumor in mm, respectively. Body weight was measured every 3 days. […] Death and observed clinical signs were recorded on the basis of the numbers of animals within each subset. […]

CCn1cc(OCC(F)(F)F)c(C(=O)Nc2ccc(Oc3ccnc4cc(OC)c(OC)cc34)cn2)n1 [Compound 4]
tumor growth delay, EMT-6 syngeneic model (EMT-6 tumor cells): delay tumor growth to a significantly larger extent
tumor growth delay, MV4-11 xenograft model (MV4-11 tumor cells): delay tumor growth to a drastically larger extent
